Data as given in patent publication US20250376473A1, “PRMTS INHIBITOR AND USE THEREOF” (Cytosinlab Therapeutics Co., Ltd., priority 2022, published 2025).
Read-outs that look alike come from different tables or passages of the source.

What was measured:
[1] = tested on: HCT116-MTAP-KO cells (HCT116 MTAP null); assay: Proliferation inhibition of HCT116 MTAP-KO cells in vitro (CellTiter Glo); format: cell-based; details: 6 days, 9 concentrations starting from 3 μM, read-out: Cell proliferation inhibition rate HCT116 MTAP null IC50 (nm)
From the text: (§1) Biological Test Example 2 Proliferation Inhibition of HCT116 and HCT116 MTAP-KO Cells in Vitro
(§2) HCT116 cell line was purchased from the Chinese Academy of Sciences Cell Bank, and the MTAP gene was knocked out by CRISPR/Cas9 technology to obtain HCT116-MTAP-KO cell line.
(§3) McCoy's 5A medium (Gibco, catalog No. 16600082), fetal bovine serum (Gibco, catalog No. 10099141C), penicillin-streptomycin double antibody (Gibco, catalog No. 15140122), pancreatic enzyme (Gibco, catalog No. 25200056), CellTiter Glo assay kit (Promega, catalog No. G7572), 384-well transparent flat-bottomed black walled cell culture plate (Corning, catalog No. 3764), ultra micro sampler (Tecan, catalog No.D300e), Multimode reader (Biotek, catalog No. SynergyHTX)
(§4) 1. Cell culture: HCT116 and HCT116-MTAP-KO cells were cultured in McCoy'5A medium+10% fetal bovine serum+1% penicillin-streptomycin double antibody; to ensure that they were always in the logarithmic growth phase and the cell viability greater than 95%.
(§5) 2. Compound concentration gradient preparation: The compound to be tested was added to a 384-well plate using an ultra micro sampler, starting from 30 μM (HCT116 cells) or 3 μM (HCT116-MTAP-KO cells), and diluted with DMSO at 3 times for a total of 9 concentrations and set up three duplicate wells.
(§6) 3. Treatment of cells with compounds: Trypsin-digested HCT116 or HCT116-MTAP-KO cell suspension was added to the 384-well plates spotted with the compounds to be tested at 40 μL per well, i.e., 100 cells per well, and the final concentration of DMSO was 0.4%. The cell culture plate was incubated at 37° C. in a 5% CO2 incubator for 6 days.
(§7) 4. Detection: 20 μL of CellTiter Glo reagent was added to each well of the cell culture plate and incubated at room temperature for 30 minutes. A multimode reader was used to detect the luminescence signal at […].
(§8) The data was fitted with GraphPad Prism 8.0 software using a four parameter inhibitor-reaction model to obtain the IC50 value (half inhibitory concentration) of the test compounds.

HCT116 MTAP WT cells = assay: Proliferation inhibition of HCT116 cells in vitro (CellTiter Glo); format: cell-based; details: 6 days, 9 concentrations starting from 30 μM, read-out: Cell proliferation inhibition rate HCT116 MTAP WT IC50 (nm)
From the text: as §1, §2, §3, §4, §5, §6, §7, §8

Structure (SMILES): Cc1ncc2c(N)nc3cc(F)c(C(=O)N(Cc4ccc(C(F)(F)F)cn4)C4CCOC4)cc3n12 (stereo not drawn) [Example 156]
- IC50 ([1]; HCT116-MTAP null, 144 h): 100 to 1000 nM
- IC50 (HCT116 MTAP WT cells; Homo sapiens, HCT-116, 144 h): 1000 to 10000 nM

Structure (SMILES): Cc1nn(C)cc1N(Cc1ccc(OC(F)(F)F)cn1)C(=O)c1cc2c(cc1F)nc(N)c1cnc(C)n12 [Example 157]
- IC50 ([1]; HCT116-MTAP null, 144 h): < 100 nM
- IC50 (HCT116 MTAP WT cells; Homo sapiens, HCT-116, 144 h): 1000 to 10000 nM

Structure (SMILES): Cc1ncc2c(N)nc3cc(F)c(C(=O)N(Cc4ccc(C(F)(F)F)cn4)C4COC4)cc3n12 [Example 158]
- IC50 ([1]; HCT116-MTAP null, 144 h): 100 to 1000 nM
- IC50 (HCT116 MTAP WT cells; Homo sapiens, HCT-116, 144 h): 1000 to 10000 nM

Structure (SMILES): Cc1ncc2c(N)nc3cc(F)c(C(=O)N4CCC(c5ccc(C(F)(F)F)cn5)C4)cc3n12 (stereo not drawn) [Example 159]
- IC50 ([1]; HCT116-MTAP null, 144 h): 100 to 1000 nM
- IC50 (HCT116 MTAP WT cells; Homo sapiens, HCT-116, 144 h): 1000 to 10000 nM

Structure (SMILES): Cc1nn(C)cc1N(Cc1ccc(OC2CC2)cn1)C(=O)c1cc2c(cc1F)nc(N)c1c(C)ncn12 [Example 161]
- IC50 ([1]; HCT116-MTAP null, 144 h): < 100 nM
- IC50 (HCT116 MTAP WT cells; Homo sapiens, HCT-116, 144 h): < 100 nM

Structure (SMILES): Cc1nn(CCO)cc1N(Cc1ccc(C(F)(F)F)cn1)C(=O)c1cc2c(cc1F)nc(N)c1c(C)ncn12 [Example 165]
- IC50 ([1]; HCT116-MTAP null, 144 h): < 100 nM
- IC50 (HCT116 MTAP WT cells; Homo sapiens, HCT-116, 144 h): 1000 to 10000 nM

Structure (SMILES): CCOc1ccc(CN(C(=O)c2cc3c(cc2F)nc(N)c2c(C)ncn23)c2cn(C)nc2C)nc1 [Example 168]
- IC50 ([1]; HCT116-MTAP null, 144 h): < 100 nM
- IC50 (HCT116 MTAP WT cells; Homo sapiens, HCT-116, 144 h): < 100 nM

Structure (SMILES): CCc1nn(C)cc1N(Cc1ccc(C(F)(F)F)cn1)C(=O)c1cc2c(cc1F)nc(N)c1cnc(C)n12 [Example 169]
- IC50 [1]: < 100 nM
- IC50 (HCT116 MTAP WT cells): 100 to 1000 nM

Structure (SMILES): Cc1nn(C)cc1N(Cc1ccc(OC(F)(F)F)cn1)C(=O)c1cc2c(cc1F)nc(N)c1c(C)ncn12 [Example 170]
- IC50 ([1]; HCT116-MTAP null, 144 h): < 100 nM
- IC50 (HCT116 MTAP WT cells; Homo sapiens, HCT-116, 144 h): < 100 nM

Structure (SMILES): CCn1cc(N(Cc2ccc(OC3CC3)cn2)C(=O)c2cc3c(cc2F)nc(N)c2cnc(C)n23)c(C)n1 [Example 171]
- IC50 ([1]; HCT116-MTAP null, 144 h): < 100 nM
- IC50 (HCT116 MTAP WT cells; Homo sapiens, HCT-116, 144 h): 1000 to 10000 nM

Structure (SMILES): Cc1nn(CC(F)F)cc1N(Cc1ccc(C(F)(F)F)cn1)C(=O)c1cc2c(cc1F)nc(N)c1cnc(C)n12 [Example 173]
- IC50 ([1]; HCT116-MTAP null, 144 h): < 100 nM
- IC50 (HCT116 MTAP WT cells; Homo sapiens, HCT-116, 144 h): 1000 to 10000 nM

Structure (SMILES): Cc1ncc2c(N)nc3cc(F)c(C(=O)N(Cc4ccc(C(F)(F)F)cn4)c4cn(C)nc4Cl)cc3n12 [Example 175]
- IC50 ([1]; HCT116-MTAP null, 144 h): < 100 nM
- IC50 (HCT116 MTAP WT cells; Homo sapiens, HCT-116, 144 h): 1000 to 10000 nM

Structure (SMILES): Cc1nn(C(C)C)cc1N(Cc1ccc(C(F)(F)F)cn1)C(=O)c1cc2c(cc1F)nc(N)c1cnc(C)n12 [Example 176]
- IC50 ([1]; HCT116-MTAP null, 144 h): < 100 nM
- IC50 (HCT116 MTAP WT cells; Homo sapiens, HCT-116, 144 h): 1000 to 10000 nM

Structure (SMILES): CCn1cc(N(Cc2ccc(OC3CC3)cn2)C(=O)c2cc3c(cc2F)nc(N)c2c(C)ncn23)c(C)n1 [Example 177]
- IC50 ([1]; HCT116-MTAP null, 144 h): < 100 nM
- IC50 (HCT116 MTAP WT cells; Homo sapiens, HCT-116, 144 h): 100 to 1000 nM

Structure (SMILES): Cc1ncc2c(N)nc3cc(F)c(C(=O)N(Cc4ccc(C(F)(F)F)cn4)c4cn(C)nc4C(F)(F)F)cc3n12 [Example 178]
- IC50 ([1]; HCT116-MTAP null, 144 h): < 100 nM
- IC50 (HCT116 MTAP WT cells; Homo sapiens, HCT-116, 144 h): 1000 to 10000 nM

Structure (SMILES): Cc1cn(C)nc1N(Cc1ccc(C(F)(F)F)cn1)C(=O)c1cc2c(cc1F)nc(N)c1cnc(C)n12 [Example 179]
- IC50 ([1]; HCT116-MTAP null, 144 h): < 100 nM
- IC50 (HCT116 MTAP WT cells; Homo sapiens, HCT-116, 144 h): 1000 to 10000 nM

Structure (SMILES): Cc1c(N(Cc2ccc(C(F)(F)F)cn2)C(=O)c2cc3c(cc2F)nc(N)c2cnc(C)n23)cnn1CC(F)F [Example 180]
- IC50 ([1]; HCT116-MTAP null, 144 h): < 100 nM
- IC50 (HCT116 MTAP WT cells; Homo sapiens, HCT-116, 144 h): 1000 to 10000 nM

Structure (SMILES): Cc1nn(C)cc1N(Cc1ccc(C(F)(F)F)nc1)C(=O)c1cc2c(cc1F)nc(N)c1cnc(C)n12 [Example 182]
- IC50 ([1]; HCT116-MTAP null, 144 h): < 100 nM
- IC50 (HCT116 MTAP WT cells; Homo sapiens, HCT-116, 144 h): 1000 to 10000 nM

Structure (SMILES): Cc1nn(C)cc1N(Cc1ccc(C(F)(F)F)cn1)C(=O)c1cc2c(cn1)nc(N)c1cnc(C)n12 [Example 183]
- IC50 ([1]; HCT116-MTAP null, 144 h): < 100 nM
- IC50 (HCT116 MTAP WT cells; Homo sapiens, HCT-116, 144 h): 1000 to 10000 nM

Structure (SMILES): CCc1nn(C)cc1N(Cc1ccc(C(F)(F)F)cn1)C(=O)c1cc2c(cc1F)nc(N)c1c(C)ncn12 [Example 184]
- IC50 ([1]; HCT116-MTAP null, 144 h): < 100 nM
- IC50 (HCT116 MTAP WT cells; Homo sapiens, HCT-116, 144 h): < 100 nM

Structure (SMILES): Cc1ccc(N(Cc2ccc(C(F)(F)F)cn2)C(=O)c2cc3c(cc2F)nc(N)c2cnc(C)n23)c(C)n1 [Example 187]
- IC50 ([1]; HCT116-MTAP null, 144 h): < 100 nM
- IC50 (HCT116 MTAP WT cells; Homo sapiens, HCT-116, 144 h): 1000 to 10000 nM
